Assays:
CD19+ B cells = assay: Human B cell proliferation assay (3H-thymidine incorporation); conditions: B cells, 2 μg/ml, Experiment B
human PBMCs = assay: Human PBMC cytokine response assay (IFN-γ and IFN-α in cell-free medium by ELISA), with or without cPLGA; assay type: cell-based;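 on IFN-α (pg/ml) mean: 20 µg/mL compound for 24 hours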;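 on IFN-γ (pg/ml) mean: 20 µg/mL compound for 24 hours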
mouse lung = assay: Induction of immune-associated genes in the mouse lung after intranasal treatment (quantitative PCR); assay type: in vivo, BALB/c mice; conditions: 20 ug intranasal, 6 hrs; vs P-7 treated mice
Procedure: The genes evaluated included genes encoding cytokines, chemokines, cell surface molecules, transcription factors, metalloproteases, and other molecules. The study was performed at Northview Pacific Laboratories (Hercules, Calif.) with 6-8 week old female BALB/c mice from Jackson Labs (Bar Harbor, Me.). […] Therefore, at 6 hrs the lungs were harvested and snap-frozen in liquid nitrogen and stored at −80° C. for later use. Total RNA was isolated using RNeasy mini kits (Qiagen Inc., Valencia, Calif.). The RNA samples were DNAse-treated (Roche Diagnostics, Mannheim, Germany) and converted into cDNA using Superscript II Rnase H-Reverse Transcriptase (Invitrogen, Rockville Md.) as described in Scheerens et al., 2001, Eur. J. of Immunology 31:1465-74. The cDNA samples were pooled per group and in each pooled sample the expression of mRNA of 75 genes was measured using real-time quantitative PCR (ABI Prism 5700, Perkin Elmer Applied Biosystems) and syber green (Qiagen Inc.). In addition to the genes of interest, in each sample the mRNA expression of a housekeeping gene was measured (HPRT or ubiquitin). In order to correct for the amount of RNA in each sample, all data were calculated relative to the expression of the housekeeping gene.

mice = assay: Serum cytokines (IL-12 p40, IL-6, TNF-α) after subcutaneous injection in mice; assay type: in vivo; conditions: 20 ug subcutaneous
Procedure: Blood was collected 2 hours later. For the LPS positive control group, mice were injected intraperitoneally with a 200 ul volume, and blood was collected 1.5 hours later (i.e., at the peak of LPS induced TNF-α activity). The blood was clotted and the serum was prepared and stored at −80° C. until assayed. Serum cytokines were assayed using Biosource cytoscreen kits for TNF-α and Pharmingen antibody pairs for mIL-6 and mIL-12. All samples were assayed in duplicate.

[1] = donor 28066, 20 ug/ml, 24 h, + PLGA = premixed with 100 μg/ml cPLGA
[2] = donor 28067, 20 ug/ml, 24 h, + PLGA = premixed with 100 μg/ml cPLGA
[3] = donor 28068, 20 ug/ml, 24 h, + PLGA = premixed with 100 μg/ml cPLGA
[4] = mean of donors 28065-28068, 20 ug/ml, 24 h, + PLGA = premixed with 100 μg/ml cPLGA
[5] = mean of donors 28185-28188, Table 15

Substance: 5′-TCGTCG-3′-HEG-5′-AACGTT-3′-HEG-5′-AGATGAT-3′ [Compound C-23]
- cpm1 (CD19+ B cells; donor 121): 10628 cpm
- cpm2 (CD19+ B cells; donor 121): 16221 cpm
- cpm3 (CD19+ B cells; donor 121): 20087 cpm
- mean cpm (CD19+ B cells; donor 121 mean): 15645 cpm
- cpm1 (CD19+ B cells; donor 194): 8730 cpm
- cpm2 (CD19+ B cells; donor 194): 6532 cpm
- cpm3 (CD19+ B cells; donor 194): 9596 cpm
- mean cpm (CD19+ B cells; donor 194 mean): 8286 cpm
- mean of both (CD19+ B cells; mean of donors 121 and 194): 11966 cpm
- IFN-α (human PBMCs; Table 13, donor 28156): 26 pg/mL
- IFN-γ (human PBMCs; Table 13, donor 28156): 733 pg/mL
- IFN-α (human PBMCs; Table 13, donor 28157): 235 pg/mL
- IFN-γ (human PBMCs; Table 13, donor 28157): 576 pg/mL
- IFN-α (human PBMCs; Table 13, donor 28158): 59 pg/mL
- IFN-γ (human PBMCs; Table 13, donor 28158): 202 pg/mL
- IFN-α (human PBMCs; Table 13, donor 28159): 169 pg/mL
- IFN-γ (human PBMCs; Table 13, donor 28159): 295 pg/mL
- IFN-α mean (human PBMCs; Table 13, mean of donors): 122 pg/mL
- IFN-γ mean (human PBMCs; Table 13, mean of donors): 452 pg/mL
- IFN-γ (pg/ml) 28065 (human PBMCs; donor 28065 (high background), 20 ug/ml, 24 h, + PLGA = premixed with 100 μg/ml cPLGA, 1000 = outside assay limits): 438 pg/mL
- IFN-α (pg/ml) 28065 (human PBMCs; donor 28065, 20 ug/ml, 24 h, + PLGA = premixed with 100 μg/ml cPLGA): 52 pg/mL
- IFN-α (pg/ml) 28066 (human PBMCs; [1]): 3 pg/mL
- IFN-γ (pg/ml) 28066 (human PBMCs; [1]): 5 pg/mL
- IFN-α (pg/ml) 28067 (human PBMCs; [2]): 19 pg/mL
- IFN-γ (pg/ml) 28067 (human PBMCs; [2]): 6 pg/mL
- IFN-α (pg/ml) 28068 (human PBMCs; [3]): 137 pg/mL
- IFN-γ (pg/ml) 28068 (human PBMCs; [3]): 238 pg/mL
- IFN-a (human PBMCs; donor 28185, Table 15): 83 pg/mL
- IFN-g (human PBMCs; donor 28185, Table 15): 42 pg/mL
- IFN-a (human PBMCs; donor 28186, Table 15): 27 pg/mL
- IFN-g (human PBMCs; donor 28186, Table 15): 14 pg/mL
- IFN-a (human PBMCs; donor 28187, Table 15): 59 pg/mL
- IFN-g (human PBMCs; donor 28187, Table 15): 29 pg/mL
- IFN-a (human PBMCs; donor 28188, Table 15): 55 pg/mL
- IFN-g (human PBMCs; donor 28188, Table 15): 3 pg/mL
- IFN-α (pg/ml) mean (human PBMCs; [4]): 53 pg/mL
- IFN-γ (pg/ml) mean (human PBMCs; [4]): 172 pg/mL
- IFN-a (pg/ml) mean (human PBMCs; [5]): 56 pg/mL
- IFN-g (pg/ml) mean (human PBMCs; [5]): 22 pg/mL
- IFN-a (pg/ml) ×2 (human PBMCs; mean ×2, Table 15): 112 pg/mL
- IFN-g (pg/ml) ×4 (human PBMCs; mean ×4, Table 15): 88 pg/mL
- mRNA expression of immune-associated genes in the lung, in words (mouse lung): potently induce the expression of a variety of genes
- potency in serum cytokine induction compared with other compounds, in words (mice): more potent than C-9 and P-6
- induction of serum IL-12 p40, IL-6 and TNF-α, in words (mice; blood 2 hours later): induced IL-12 p40, IL-6, and TNF-α
